Experimental data reported in patent publication EP4818187A1, “COMPOUND AND USE THEREOF” (Ganzhou Hemay Pharmaceutical, Co., Ltd, priority 2023, dated 2025).

Legend:
[1] = tested on: HCT116 (human colorectal cancer); assay: In vitro inhibitory effect against human tumor cells (MTT); type: cell-based; conditions: HCT-116, 72 h, 3 days
Description: (§1) Cells were cultured with 5% CO2 at 37°C and saturated humidity until they reached a logarithmic growth phase (usually adherent cells were nearly fully confluent). After removing adherent cells by trypsin/EDTA digestion, the cells were collected for subsequent experiments.
(§2) The cells were inoculated into a 96-well cell culture plate (hereinafter referred to as the 96-well plate) based on the cell count shown in Table 2, cultured overnight to achieve cell adherence, and then, after different concentrations of the test compound were added, further cultured for a total of 3 days. Finally, the total cell protein in the assay wells was assayed by SRB, or the cell viability was assessed by MTT:
(§3) 2.2 Assaying cell viability by MTT: the modification is based on the method in the literature (J. Carmichael, W. DeGraff, A. Gazdar et al., Evaluation of a tetrazolium-based semiautomated colorimetric assay: assessment of chemosensitivity testing. Cancer Research. 1987, 47: 936-942). Specific method: For well-adherent cells: the medium was pipetted out, 100 µL of a basal medium containing 0.5 mg/mL MTT (medium free of fetal bovine serum (FBS) and other additives) was added to each well, and culture was continued for additional 3 h. The MTT-containing basal medium was pipetted out, and 100 µL of DMSO was added to each well to dissolve formazan, followed by assay at a wavelength of 490 nm.
(§4) For poorly-adherent cells: MTT solution was directly added to a concentration of 0.5 mg/mL, culture was continued for additional 3 h, and an equal volume of triple solvent was added to the system to dissolve formazan, followed by assay at a wavelength of 570 nm.
(§5) 2.3: 1-2 mg of β-glucuronidase was weighed, and dissolved in PBS to prepare 2 mg/mL stock solution. Prior to use, the stock solution was diluted with a complete medium to prepare 12.5 µg/mL enzyme working solution. For assay wells requiring the enzyme, 80 µL of the enzyme working solution was added, with the β-glucuronidase at a concentration of 1 µg/well; and for assay wells not requiring the enzyme, 80 µL of the complete medium was added.
(§6) 1-3 mg of the test compound was weighed, and dissolved in DMSO to prepare 20 mM stock solution. The stock solution was diluted in a 3-fold gradient with DMSO, then diluted 100-fold with RPMI1640 basal medium to obtain 10× working solutions, with a total of 8 concentrations. 20 µL of the 10× working solutions were add to the assay wells, with the final volume of each well of 200 µL, and with the DMSO at a concentration of 0.1%.
(§7) 2.4 Calculation of inhibitory activity of compound: the experiment includes a compound test group, a compound-free positive solvent control group (PC), and a negative solvent control group (NC) without cells and the compound. Inhibition rate = [1−(testvalue−NCmean)/(PCmean−NCmean)] × 100% [formula]
(§8) The mean and SD of the inhibition rate were obtained from replicate assay wells. A curve was plotted with the compound concentrations distributed in a logarithmic form as the abscissa and with the mean inhibition rates as the ordinate, and was fitted with a 4-parameter logistic equation. The compound concentration corresponding to 50% inhibition rate on the curve is the IC50 value. Table 2: Culture medium formulation and cell inoculation concentration for human tumor cell lines

[2] = tested on: NCI-H1975 (human non-small cell lung cancer); assay: as above; type: cell-based; conditions: NCI-H1975, 72 h, 3 days
Description: as §1, §2, §3, §4, §5, §6, §7, §8

[3] = tested on: SK-OV-3 (human ovarian cancer); assay: as above; type: cell-based; conditions: SK-OV-3, 72 h, SK-OV-3, MTT, 3 days
Description: as §1, §2, §3, §4, §5, §6, §7, §8

[4] = tested on: Fadu (human pharyngeal squamous cell carcinoma); assay: as above; type: cell-based; conditions: 72 h, 3 days
Description: as §1, §2, §3, §4, §5, §6, §7, §8

[5] = tested on: HepG2 (human liver cancer cell); assay: In vitro inhibitory effect against human tumor cells (SRB); type: cell-based; conditions: HepG2, 72 h, 3 days
Description: as §1, §2
(§9) 2.1 Assaying total cell protein by SRB: the modification is based on the method in the literature (V. Vichai and K. Kirtikara. Sulforhodamine B colorimetric assay for cytotoxicity screening. Nature Protocols. 2006, 1: 1112-1116). Specific method: the culture medium was pipetted out from the wells, the cells were fixed with 10% trichloroacetic acid for more than 1 h, and trichloroacetic acid was removed; the cells were washed with H2O, and stained with 0.4% SRB for 15-30 min; after excess SRB was removed, the cells were washed with 1% acetic acid; 100 µl of 10 mM tris(trihydroxymethylaminomethane) was added to dissolve the protein-bound SRB, followed by assay at a wavelength of 570 nm.
as §5, §6, §7, §8

[6] = tested on: 22RV1 (human prostate cancer); assay: as above; type: cell-based; conditions: 22Rv1, 72 h, 22RV1, SRB, 3 days
Description: as §1, §2, §9, §5, §6, §7, §8

[7] = tested on: A375 (human malignant melanoma); assay: as above; type: cell-based; conditions: A-375, 72 h, 3 days
Description: as §1, §2, §9, §5, §6, §7, §8

[8] = tested on: BxPC-3 (human pancreatic cancer in situ); assay: In vitro inhibitory effect against human tumor cells (MTT or SRB); type: cell-based; conditions: BXPC-3, 72 h, BxPC-3, test method printed MTT (head: SRB), 3 days
Description: as §1, §2, §9, §3, §4, §5, §6, §7, §8

[9] = tested on: human non-small cell lung cancer NCI-H1975; assay: Biological Example 7: in vivo xenograft model of human non-small cell lung cancer NCI-H1975; parameters: species or system Balb/c-nu nude mice; conditions: nude mice; for Final body weight change (%) / Maximum body weight change (%) / Relative volume RTV (x±S.D.) / T/C (%) / Tumor inhibition rate (%) / Tumor weight (g, x±S.D.): 0.8 mg/kg i.v. qw×3; for Body weight (g, x±S.D.) End: 0.8 mg/kg i.v. qw×3, End; for Body weight (g, x±S.D.) Start: 0.8 mg/kg i.v. qw×3, Start
[10] = tested on: human ovarian cancer SK-OV-3; assay: Biological Example 5: in vivo xenograft model of human ovarian cancer SK-OV-3; parameters: species or system Balb/c-nu nude mice; conditions: SK-OV-3 xenograft, nude mice, 0.8 mg/kg i.v. qw×3
[11] = tested on: human non-small cell lung cancer NCI-H1975; assay: Biological Example 10: in vivo xenograft model of human non-small cell lung cancer NCI-H1975; parameters: species or system Balb/c-nu nude mice; conditions: nude mice; for Final body weight change (%) / Maximum body weight change (%) / Relative volume RTV (x±S.D.) / T/C (%) / Tumor inhibition rate (%) / Tumor weight (g, x±S.D.): 0.4 mg/kg i.v. qw×2; for Body weight (g, x±S.D.) End 24d: 0.4 mg/kg i.v. qw×2, End 24d; for Body weight (g, x±S.D.) Start: 0.4 mg/kg i.v. qw×2, Start
[12] = With addition of βGU (1 µg/well)

Row | SMILES | IC50 [1, 12] | IC50 ([1]; βGU-free) | IC50 [2, 12] | IC50 ([2]; βGU-free) | IC50 [3, 12] | IC50 ([3]; βGU-free) | IC50 [4, 12] | IC50 ([4]; βGU-free) | IC50 [5, 12] | IC50 ([5]; βGU-free) | IC50 [6, 12] | IC50 ([6]; βGU-free) | IC50 [7, 12] | IC50 ([7]; βGU-free) | IC50 [8, 12] | IC50 ([8]; βGU-free) | Final body weight change (%) [9] | Maximum body weight change (%) [9] | Relative volume RTV (x±S.D.) [9] | T/C (%) [9] | also measured
1 | CC[C@H](C)[C@@H]([C@@H](CC(=O)N1CCC[C@H]1[C@H](OC)[C@@H](C)C(=O)N[C@H](C)[C@@H](O)c1ccccc1)OC)N(C)C(=O)[C@@H](NC(=O)[C@H](C(C)C)[N+](C)(C)Cc1ccc(O[C@@H]2O[C@H](C(=O)[O-])[C@@H](O)[C@H](O)[C@H]2O)cc1OCc1cn(CCCOCC(=O)Nc2ccc(-c3ccc(/N=N/c4ccc5c(S(=O)(=O)[O-])cc(S(=O)(=O)[O-])c(N)c5c4O)c(C)c3)cc2C)nn1)C(C)C.[Na+].[Na+] [Example compound 10] | 3.4 nM | 87 nM | 1.9 nM | 50 nM | 2.7 nM | 74 nM | 0.64 nM | 14 nM | 4.1 nM | 93 nM | 4.4 nM | 94 nM | 1.4 nM | 33 nM | 0.71 nM | 29 nM | 10.2% | 10.2, d21% | 0.66±0.23 | 4.6% | Tumor inhibition rate (%) [9]: 97.7%; Tumor weight (g, x±S.D.) [9]: 0.041 ± 0.022 g; Body weight (g, x±S.D.) End [9]: 26.0 ± 1.0 g; Body weight (g, x±S.D.) Start [9]: 23.7 ± 1.3 g; Final body weight change (%) [10]: 4.3%; Maximum body weight change (%) [10]: 4.4, d18%; Relative volume RTV (x±S.D.) [10]: 0.37±0.73; T/C (%) [10]: 3.2%; Tumor inhibition rate (%) [10]: 97.9%; Tumor weight (g, x±S.D.) [10]: 0.035 ± 0.077 g; Body weight (g, x±S.D.) End [10]: 24.7 ± 0.9 g; Body weight (g, x±S.D.) Start [10]: 23.7 ± 1.1 g; Final body weight change (%) [11]: 4.6%; Maximum body weight change (%) [11]: 4.6, d28%; Relative volume RTV (x±S.D.) [11]: 0.26±0.02; T/C (%) [11]: 5.2%; Tumor inhibition rate (%) [11]: 95.7%; Tumor weight (g, x±S.D.) [11]: 0.047 ± 0.020 g; Body weight (g, x±S.D.) End 24d [11]: 22.9 ± 0.8 g; Body weight (g, x±S.D.) Start [11]: 21.9 ± 1.3 g
2 | CC[C@H](C)[C@@H]([C@@H](CC(=O)N1CCC[C@H]1[C@H](OC)[C@@H](C)C(=O)N[C@H](C)[C@@H](O)c1ccccc1)OC)N(C)C(=O)[C@@H](NC(=O)[C@H](C(C)C)[N+](C)(CC)Cc1ccc(O[C@@H]2O[C@H](C(=O)[O-])[C@@H](O)[C@H](O)[C@H]2O)cc1OCc1cn(CCCCCC(=O)Nc2ccc(-c3ccc(/N=N/c4ccc5c(S(=O)(=O)[O-])cc(S(=O)(=O)[O-])c(N)c5c4O)c(C)c3)cc2C)nn1)C(C)C.[Na+].[Na+] (some centres unmarked) [Example compound 12] | 1.6 nM | 84 nM | 1.2 nM | 74 nM | 1.1 nM | 37 nM | 0.21 nM | 36 nM | 3 nM | 106 nM | 2.5 nM | 77 nM | 1 nM | 50 nM | 0.53 nM | 28 nM | 5.8% | 5.8, d21% | 0.46±0.35 | 3.2% | Tumor inhibition rate (%) [9]: 97.8%; Tumor weight (g, x±S.D.) [9]: 0.039 ± 0.039 g; Body weight (g, x±S.D.) End [9]: 25.6 ± 2.4 g; Body weight (g, x±S.D.) Start [9]: 24.1 ± 1.6 g; Final body weight change (%) [10]: 4.4%; Maximum body weight change (%) [10]: 4.4, d21%; Relative volume RTV (x±S.D.) [10]: 0.07±0.04; T/C (%) [10]: 0.6%; Tumor inhibition rate (%) [10]: 99.7%; Tumor weight (g, x±S.D.) [10]: 0.005 ± 0.001 g; Body weight (g, x±S.D.) End [10]: 25.1 ± 1.4 g; Body weight (g, x±S.D.) Start [10]: 24.1 ± 1.2 g; Final body weight change (%) [11]: 5.7%; Maximum body weight change (%) [11]: 5.7, d28%; Relative volume RTV (x±S.D.) [11]: 0.44±0.06; T/C (%) [11]: 8.8%; Tumor inhibition rate (%) [11]: 92.1%; Tumor weight (g, x±S.D.) [11]: 0.086 ± 0.009 g; Body weight (g, x±S.D.) End 24d [11]: 23.1 ± 0.7 g; Body weight (g, x±S.D.) Start [11]: 21.8 ± 0.6 g
